Data as given in ChEMBL document CHEMBL3885861, “Open TG-GATES”.

Species on record: Rattus norvegicus
Experiment: Open TG-GATES - Regimen: Daily Repeat
Format: toxicity, organism-based, Sprague-Dawley
Set-up: regimen Daily Repeat, gender Male, age 6 weeks
Conditions: in vivo, po, 100 mg/kg, route gavage, dose level High; for APTT / Bas / Eos / Fbg / Hb / Ht / Lym / MCH / MCHC / MCV / Mono / Neu / PT / Plat / RBC / Ret / WBC: tissue Blood; for KIDNEY_TOTAL: tissue Kidney; for LIVER: tissue Liver; for A/G / ALP / ALT / AST / BUN / CRE / Ca / Cl / DBIL / GLC / IP / K / LDH / Na / PL / RALB / TBIL / TC / TG / TP / gamma-GTP: tissue Plasma

With CN(CCOc1ccc(CC2SC(=O)NC2=O)cc1)c1ccccn1.O=C(O)/C=C\C(=O)O (centres undefined) [ROSIGLITAZONE MALEATE] the TERMINAL_BW (72 h, time 3 day) was 241.9 g, the APTT (72 h, time 3 day) was 16.1 s and the Bas (72 h, time 3 day) was 0%. The Eos (72 h, time 3 day) was 1%, the Fbg (72 h, time 3 day) was 214 mg/dL and the Hb (72 h, time 3 day) was 12 g/dL. For the same molecule, the Ht (72 h, time 3 day) was 36.4%, the Lym (72 h, time 3 day) was 73.4% and the MCH (72 h, time 3 day) was 21.1 pg. It also gave an MCHC (72 h, time 3 day) of 33%, an MCV (72 h, time 3 day) of 63.8 fL and a Mono (72 h, time 3 day) of 7.2%. It also gave a Neu (72 h, time 3 day) of 19.2%, a PT (72 h, time 3 day) of 11.7 s and a Plat (72 h, time 3 day) of 122 x10_4/uL. For the same molecule, the RBC (72 h, time 3 day) was 570.8 x10_4/ul, the Ret (72 h, time 3 day) was 7.7% and the WBC (72 h, time 3 day) was 111.2 x10_2/uL. For the same molecule, the KIDNEY_TOTAL (72 h, time 3 day) was 0.7 g, the LIVER (72 h, time 3 day) was 12.3 g and the A/G (72 h, time 3 day) was 2.5. For the same molecule, the ALP (72 h, time 3 day) was 1258 IU/L, the ALT (72 h, time 3 day) was 44.4 IU/L and the AST (72 h, time 3 day) was 74.2 IU/L. The BUN (72 h, time 3 day) was 17.2 mg/dL, the CRE (72 h, time 3 day) was 0.2 mg/dL and the Ca (72 h, time 3 day) was 11.4 mg/dL. For the same molecule, the Cl (72 h, time 3 day) was 106.2 meq/L, the DBIL (72 h, time 3 day) was 0.01 mg/dL and the GLC (72 h, time 3 day) was 179.8 mg/dL. For the same molecule, the IP (72 h, time 3 day) was 8.1 mg/dL, the K (72 h, time 3 day) was 4.1 meq/L and the LDH (72 h, time 3 day) was 115.6 IU/L. For the same molecule, the Na (72 h, time 3 day) was 141.8 meq/L, the PL (72 h, time 3 day) was 142.2 mg/dL and the RALB (72 h, time 3 day) was 3.8 g/dL. The TBIL (72 h, time 3 day) was 0.034 mg/dL, the TC (72 h, time 3 day) was 77.6 mg/dL and the TG (72 h, time 3 day) was 48 mg/dL. For the same molecule, the TP (72 h, time 3 day) was 5.4 g/dL, the gamma-GTP (72 h, time 3 day) was 0 IU/L and the TERMINAL_BW ([…], time 7 day) was 286.2 g. The TERMINAL_BW ([…], time 14 day) was 351.2 g, the TERMINAL_BW ([…], time 28 day) was 428.4 g and the APTT ([…], time 7 day) was 16.1 s. It also gave a Bas ([…], time 7 day) of 0%, an Eos ([…], time 7 day) of 1.2% and a Fbg ([…], time 7 day) of 195.8 mg/dL. For the same molecule, the Hb ([…], time 7 day) was 11.6 g/dL, the Ht ([…], time 7 day) was 35.3% and the Lym ([…], time 7 day) was 74.6%. The MCH ([…], time 7 day) was 21.8 pg, the MCHC ([…], time 7 day) was 32.8% and the MCV ([…], time 7 day) was 66.4 fL. For the same molecule, the Mono ([…], time 7 day) was 9.2%, the Neu ([…], time 7 day) was 15.4% and the PT ([…], time 7 day) was 12.2 s. It also gave a Plat ([…], time 7 day) of 111.4 x10_4/uL, an RBC ([…], time 7 day) of 530.8 x10_4/ul and a Ret ([…], time 7 day) of 7.7%. For the same molecule, the WBC ([…], time 7 day) was 99 x10_2/uL, the APTT ([…], time 14 day) was 16.1 s and the Bas ([…], time 14 day) was 0%. The Eos ([…], time 14 day) was 1%, the Fbg ([…], time 14 day) was 227 mg/dL and the Hb ([…], time 14 day) was 12.8 g/dL. It also gave a Ht ([…], time 14 day) of 38.9%, a Lym ([…], time 14 day) of 70.8% and an MCH ([…], time 14 day) of 20.8 pg. The MCHC ([…], time 14 day) was 32.8%, the MCV ([…], time 14 day) was 63.4 fL and the Mono ([…], time 14 day) was 10.4%. The Neu ([…], time 14 day) was 17.6%, the PT ([…], time 14 day) was 12 s and the Plat ([…], time 14 day) was 94.8 x10_4/uL. For the same molecule, the RBC ([…], time 14 day) was 614.6 x10_4/ul, the Ret ([…], time 14 day) was 4.9% and the WBC ([…], time 14 day) was 108.6 x10_2/uL. It also gave an APTT ([…], time 28 day) of 16.1 s, a Bas ([…], time 28 day) of 0% and an Eos ([…], time 28 day) of 1.2%. It also gave a Fbg ([…], time 28 day) of 220.8 mg/dL, a Hb ([…], time 28 day) of 12.9 g/dL and a Ht ([…], time 28 day) of 39.5%. It also gave a Lym ([…], time 28 day) of 77.4%, an MCH ([…], time 28 day) of 19.6 pg and an MCHC ([…], time 28 day) of 32.6%. It also gave an MCV ([…], time 28 day) of 60.2 fL, a Mono ([…], time 28 day) of 7.8% and a Neu ([…], time 28 day) of 13.4%. For the same molecule, the PT ([…], time 28 day) was 12.1 s, the Plat ([…], time 28 day) was 87.6 x10_4/uL and the RBC ([…], time 28 day) was 657.8 x10_4/ul. The Ret ([…], time 28 day) was 3.2%, the WBC ([…], time 28 day) was 104 x10_2/uL and the KIDNEY_TOTAL ([…], time 7 day) was 0.8 g. The KIDNEY_TOTAL ([…], time 14 day) was 0.9 g, the KIDNEY_TOTAL ([…], time 28 day) was 0.9 g and the LIVER ([…], time 7 day) was 14.7 g. It also gave an LIVER ([…], time 14 day) of 16.3 g, an LIVER ([…], time 28 day) of 18.6 g and an A/G ([…], time 7 day) of 2.3. It also gave an ALP ([…], time 7 day) of 1176 IU/L, an ALT ([…], time 7 day) of 33 IU/L and an AST ([…], time 7 day) of 67.6 IU/L. It also gave a BUN ([…], time 7 day) of 20.8 mg/dL, a CRE ([…], time 7 day) of 0.5 mg/dL and a Ca ([…], time 7 day) of 11 mg/dL. The Cl ([…], time 7 day) was 105.6 meq/L, the DBIL ([…], time 7 day) was 0.014 mg/dL and the GLC ([…], time 7 day) was 178.8 mg/dL. The IP ([…], time 7 day) was 7.5 mg/dL, the K ([…], time 7 day) was 4 meq/L and the LDH ([…], time 7 day) was 77 IU/L. It also gave a Na ([…], time 7 day) of 142 meq/L, a PL ([…], time 7 day) of 135.4 mg/dL and an RALB ([…], time 7 day) of 3.8 g/dL. It also gave a TBIL ([…], time 7 day) of 0.034 mg/dL, a TC ([…], time 7 day) of 73.8 mg/dL and a TG ([…], time 7 day) of 43.4 mg/dL. The TP ([…], time 7 day) was 5.4 g/dL, the gamma-GTP ([…], time 7 day) was 0.4 IU/L and the A/G ([…], time 14 day) was 2. The ALP ([…], time 14 day) was 1156 IU/L, the ALT ([…], time 14 day) was 36 IU/L and the AST ([…], time 14 day) was 68.2 IU/L. For the same molecule, the BUN ([…], time 14 day) was 18.2 mg/dL, the CRE ([…], time 14 day) was 0.4 mg/dL and the Ca ([…], time 14 day) was 11 mg/dL. The Cl ([…], time 14 day) was 107.6 meq/L, the DBIL ([…], time 14 day) was 0.01 mg/dL and the GLC ([…], time 14 day) was 190.4 mg/dL. For the same molecule, the IP ([…], time 14 day) was 7.4 mg/dL, the K ([…], time 14 day) was 3.8 meq/L and the LDH ([…], time 14 day) was 87.2 IU/L. The Na ([…], time 14 day) was 145.8 meq/L, the PL ([…], time 14 day) was 120 mg/dL and the RALB ([…], time 14 day) was 3.7 g/dL. The TBIL ([…], time 14 day) was 0.028 mg/dL, the TC ([…], time 14 day) was 69.4 mg/dL and the TG ([…], time 14 day) was 38.8 mg/dL. It also gave a TP ([…], time 14 day) of 5.5 g/dL, a gamma-GTP ([…], time 14 day) of 1 IU/L and an A/G ([…], time 28 day) of 2.1. It also gave an ALP ([…], time 28 day) of 951 IU/L, an ALT ([…], time 28 day) of 29 IU/L and an AST ([…], time 28 day) of 59.2 IU/L. It also gave a BUN ([…], time 28 day) of 18.6 mg/dL, a CRE ([…], time 28 day) of 0.4 mg/dL and a Ca ([…], time 28 day) of 11 mg/dL. The Cl ([…], time 28 day) was 105 meq/L, the DBIL ([…], time 28 day) was 0.01 mg/dL and the GLC ([…], time 28 day) was 179.6 mg/dL. It also gave an IP ([…], time 28 day) of 6.2 mg/dL, a K ([…], time 28 day) of 3.9 meq/L and an LDH ([…], time 28 day) of 88.4 IU/L. The Na ([…], time 28 day) was 141.2 meq/L, the PL ([…], time 28 day) was 123.2 mg/dL and the RALB ([…], time 28 day) was 3.9 g/dL. For the same molecule, the TBIL ([…], time 28 day) was 0.04 mg/dL, the TC ([…], time 28 day) was 74.8 mg/dL and the TG ([…], time 28 day) was 37.8 mg/dL. The TP ([…], time 28 day) was 5.8 g/dL and the gamma-GTP ([…], time 28 day) was 0 IU/L.
